The record followed here is US10385024B2, “Compounds and methods for inhibiting NHE-mediated antiport in the treatment of disorders associated with fluid retention or salt overload and gastrointestinal tract disorders” (Ardelyx, Inc., priority 2012, dated 2019).

Each structure is given as a SMILES string. Some results are limits rather than exact numbers.

One data set is described as follows: Fecal recovery. In kind it is in vivo, Sprague Dawley rats. Particulars: male, Sprague-Dawley, faeces; rat, 1 mg/kg oral gavage, collection time 72 h.
For data set [1], the target named is T1, Rat NHE-3 (Rattus norvegicus, UniProt P26433).
T1 construct: expressed in transfected cells; host or cells: Opossum kidney (OK) cells (ATCC), transfected by electroporation
The experiment in a line: Cell-based assay of NHE-3 activity (rat NHE-3 prompt inhibition). Particulars: OK cells with rat NHE-3 gene, compound present during pH recovery; read-out: Rat NHE3 pIC50 (prompt) (converted). In outline:
(§1)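 Opossum kidney cells electroporated with rat or human NHE-3, loaded with 5 μM BCECF-AM in NH4Cl-HEPES pH 7.4 for 30 min at RT, then acidified 10 min in Na+-free choline HEPES. Na+-dependent pH recovery rates from BCECF fluorescence, averaged over ≥2 replicates, gave pIC50.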

For data set [2], the target named is T1, Rat NHE-3. The experiment in a line: Cell-based assay of NHE-3 activity (persistent inhibition, after washout). Conditions: OK cells with rat NHE-3 gene, 60 min incubation, recovery initiated 40 min after compound washout; read-out: Rat NHE3 pIC50 (persistent) (converted). The gist of the method:
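OK cells transiently expressing rat NHE-3 were exposed to 0-30 μM compound in NaCl-HEPES pH 7.4 for 60 min, then washed free of drug before NH4Cl/BCECF-AM loading and acid-loading in Na+-free choline buffer. Na+-dependent pH recovery rates (mean of ≥2 replicates) gave pIC50.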

A further data set deals with T2, human NHE-3 (Homo sapiens, UniProt P48764).
T2 construct: expressed in transfected cells; host or cells: Opossum kidney (OK) cells (ATCC), transfected by electroporation
T2 sequence (P48764 26-834): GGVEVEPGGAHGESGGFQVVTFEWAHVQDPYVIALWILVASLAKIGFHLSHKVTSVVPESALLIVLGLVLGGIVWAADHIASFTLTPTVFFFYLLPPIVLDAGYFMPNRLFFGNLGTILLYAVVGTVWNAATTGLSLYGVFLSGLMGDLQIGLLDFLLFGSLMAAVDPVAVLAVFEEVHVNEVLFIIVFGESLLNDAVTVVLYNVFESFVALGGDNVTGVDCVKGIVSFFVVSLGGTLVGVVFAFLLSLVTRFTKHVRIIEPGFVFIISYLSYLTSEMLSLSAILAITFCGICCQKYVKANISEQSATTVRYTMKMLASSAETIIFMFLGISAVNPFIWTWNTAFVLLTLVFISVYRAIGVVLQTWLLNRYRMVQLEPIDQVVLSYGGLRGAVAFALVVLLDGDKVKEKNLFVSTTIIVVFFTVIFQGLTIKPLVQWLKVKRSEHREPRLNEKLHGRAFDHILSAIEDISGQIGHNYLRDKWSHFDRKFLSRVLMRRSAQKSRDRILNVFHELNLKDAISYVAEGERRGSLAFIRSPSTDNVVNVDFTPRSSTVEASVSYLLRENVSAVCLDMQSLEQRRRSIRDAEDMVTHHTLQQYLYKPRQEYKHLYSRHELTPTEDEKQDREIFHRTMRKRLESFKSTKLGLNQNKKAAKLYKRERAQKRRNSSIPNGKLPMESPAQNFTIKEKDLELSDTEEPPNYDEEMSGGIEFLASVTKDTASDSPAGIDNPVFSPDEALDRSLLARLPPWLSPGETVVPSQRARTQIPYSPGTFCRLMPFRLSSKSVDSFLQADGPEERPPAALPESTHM
The data set is described as follows: Cell-based assay of NHE-3 activity (human NHE3 inhibition assay). Conditions: OK cells with human NHE-3 gene, BCECF pH dye, 0-30 μM test compound; read-out: Human NHE3 pIC50 (converted). In outline: as §1

T1 sequence (P26433 29-831): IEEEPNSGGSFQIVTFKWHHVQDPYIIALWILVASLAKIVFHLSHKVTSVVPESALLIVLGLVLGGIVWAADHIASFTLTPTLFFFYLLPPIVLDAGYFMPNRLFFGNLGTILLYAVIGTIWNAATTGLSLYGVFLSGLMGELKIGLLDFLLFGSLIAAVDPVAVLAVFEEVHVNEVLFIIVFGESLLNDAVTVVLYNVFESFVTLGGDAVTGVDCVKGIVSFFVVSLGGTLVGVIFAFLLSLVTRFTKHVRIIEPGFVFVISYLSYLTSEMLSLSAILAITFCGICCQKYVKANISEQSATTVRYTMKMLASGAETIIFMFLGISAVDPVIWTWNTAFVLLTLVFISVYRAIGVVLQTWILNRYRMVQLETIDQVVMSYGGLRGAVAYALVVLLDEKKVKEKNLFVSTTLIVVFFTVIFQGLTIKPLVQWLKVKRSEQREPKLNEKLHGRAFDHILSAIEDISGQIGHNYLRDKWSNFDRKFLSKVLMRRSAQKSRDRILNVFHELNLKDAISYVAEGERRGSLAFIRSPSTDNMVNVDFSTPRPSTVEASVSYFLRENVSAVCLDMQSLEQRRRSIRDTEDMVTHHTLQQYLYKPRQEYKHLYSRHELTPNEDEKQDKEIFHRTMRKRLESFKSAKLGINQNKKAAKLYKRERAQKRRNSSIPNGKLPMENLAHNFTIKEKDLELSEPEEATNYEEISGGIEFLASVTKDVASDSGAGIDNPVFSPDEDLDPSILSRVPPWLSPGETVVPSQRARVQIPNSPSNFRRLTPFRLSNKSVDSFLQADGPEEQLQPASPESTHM

The compound `CN(C)CC(=O)NC(CCC(=O)NCCOCCOCCNS(=O)(=O)c1cccc([C@@H]2CN(C)Cc3c(Cl)cc(Cl)cc32)c1)(CCC(=O)NCCOCCOCCNS(=O)(=O)c1cccc([C@@H]2CN(C)Cc3c(Cl)cc(Cl)cc32)c1)CCC(=O)NCCOCCOCCNS(=O)(=O)c1cccc([C@@H]2CN(C)Cc3c(Cl)cc(Cl)cc32)c1` [Example 14, N1,N7-bis(2-(2-(2-(3-((S)-6,8-dichloro-2-methyl-1,2,3,4-tetrahydroisoquinolin-4-yl)phenylsulfonamido)ethoxy)ethoxy)ethyl)-4-(3-(2-(2-(2-(3-((S)-6,8-dichloro-2-methyl-1,2,3,4-tetrahydroisoquinolin-4-yl)phenylsulfonamido)ethoxy)ethoxy)ethylamino)-3-oxopropyl)-4-(2-(dimethylamino)acetamido)heptanediamide] showed a dose excreted in the data set “Fecal recovery” of 75.3%. The IC50 at Rat NHE-3 [1], on Rat NHE-3 [2] and on human NHE-3 was under 100 nM each time.
